One experiment deals with testosterone synthesis. As to the kind of experiment: Assay of inhibitory activity on testosterone synthesis in rats. Type of experiment: in vivo, rat. The conditions noted are these: 25 mg/kg orally, male SD rats, serum testosterone two hours after administration, relative to control group. The procedure: Assay of Inhibitory Activity on Testosterone Synthesis in Rats
Test compounds (25 mg/kg) were orally administered to 9-week-old male SD (Sprague Dawley) rats. Two hours after administration of the compounds, blood was drawn and testosterone concentration in the obtained serum was measured by radioimmunoassay. The percentage (T/C, %) of the testosterone concentration of test compounds administration group to that of the control group was calculated, and taken as the inhibitory activity on testosterone synthesis.

In a further experiment the target is T1, Rat Steroid C17,20-lyase (Rattus norvegicus, UniProt P11715).
T1 construct: Testes were excised from 10- to 13-week-old male SD rats, homogenized, and centrifuged to give microsomes; from tissue; host or cells: testis microsomes of male SD rats
T1 sequence (P11715 1-507): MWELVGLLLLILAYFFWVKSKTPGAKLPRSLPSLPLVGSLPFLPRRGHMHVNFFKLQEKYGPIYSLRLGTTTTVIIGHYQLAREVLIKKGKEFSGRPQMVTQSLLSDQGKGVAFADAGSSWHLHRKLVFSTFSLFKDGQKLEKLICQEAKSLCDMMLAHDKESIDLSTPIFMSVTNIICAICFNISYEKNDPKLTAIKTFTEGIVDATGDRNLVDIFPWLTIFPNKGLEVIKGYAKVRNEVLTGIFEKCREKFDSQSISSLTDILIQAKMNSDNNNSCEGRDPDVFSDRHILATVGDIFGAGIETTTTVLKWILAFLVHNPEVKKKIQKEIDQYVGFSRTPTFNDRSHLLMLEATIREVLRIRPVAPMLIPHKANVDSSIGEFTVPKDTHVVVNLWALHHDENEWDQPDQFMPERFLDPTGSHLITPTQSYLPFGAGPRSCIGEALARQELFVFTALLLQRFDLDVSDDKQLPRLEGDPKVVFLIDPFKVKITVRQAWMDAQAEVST
Briefly: Assay of inhibitory activity on rat steroid C17,20-lyase (testis microsomes). It is filed as biochemical. Particulars: 10 nM [1,2-3H]-17α-hydroxyprogesterone, 37° C., 7 minutes. The procedure: Assay of Inhibitory Activity on Rat Steroid C17,20-lyase
The activity was determined according to The Prostate, vol. 26, 140-150 (1995).
Testes were excised from 10- to 13-week-old male SD rats, homogenized, and centrifuged to give microsomes. [1,2-^3H]-17α-hydroxyprogesterone having a final concentration of 10 nM, NADPH solution and test compounds were dissolved in 10 μl of 100 mM phosphate buffer (pH 7.4) and microsome protein (7 μg/10 μl) was added. The reaction mixture was incubated at 37° C. for 7 minutes. Ethyl acetate (40 μl) was added and the mixture was centrifuged. The substrate and the products (androstenedione and testosterone) in the supernatant were separated by silica gel thin layer chromatography (TLC). The spots were detected and quantitatively determined by BAS 2000 Bioimage analyzer. The concentration of the test compounds necessary to reduce the amount of the products by 50% (IC50) relative to the amount of the products without test compound (control) as 100% was calculated, and shown in Table 1.

In another experiment the target is T2, human CYP3A4 (Homo sapiens, UniProt P08684).
T2 construct: purchased GENTEST
Briefly: Assay of human CYP3A4-inhibitory activity. It is filed as in vitro ADME. The conditions noted are these: testosterone 100 μM as substrate, 6β-hydroxytestosterone formation, 37° C., 30 min. The procedure:
Assay of Human CYP3A4-Inhibitory Activity
Performed as in the following according to Journal of Biological Chemistry, vol. 256, 11937 (1983).
A phosphate buffer solution (50 mM, pH 7.4) containing testosterone (final concentration 100 μM, hereinafter the same), human CYP3A4 (10 pmol/ml, manufactured by GENTEST), NADPH producing system (0.5 mM NADP, 5 mM glucose-6-phosphate, 5 mM magnesium chloride, 1.5 units/ml glucose-6-phosphate dehydrogenase) and the test compound was incubated at 37° C. for 30 min. Acetonitrile was added to the reaction mixture and the mixture was stirred and centrifuged. The 6β-hydroxytestosterone in the obtained supernatant was analyzed by high performance liquid chromatography. The concentration (IC50) of the compound necessary for 50% inhibition was calculated taking the production amount without addition of the test compound as 100%.

In general, pIC50 refers to −log10 of the IC50, conventionally taken in molar units.

pIC50: −log10 of the molar value.

T2 sequence (P08684 whole entry): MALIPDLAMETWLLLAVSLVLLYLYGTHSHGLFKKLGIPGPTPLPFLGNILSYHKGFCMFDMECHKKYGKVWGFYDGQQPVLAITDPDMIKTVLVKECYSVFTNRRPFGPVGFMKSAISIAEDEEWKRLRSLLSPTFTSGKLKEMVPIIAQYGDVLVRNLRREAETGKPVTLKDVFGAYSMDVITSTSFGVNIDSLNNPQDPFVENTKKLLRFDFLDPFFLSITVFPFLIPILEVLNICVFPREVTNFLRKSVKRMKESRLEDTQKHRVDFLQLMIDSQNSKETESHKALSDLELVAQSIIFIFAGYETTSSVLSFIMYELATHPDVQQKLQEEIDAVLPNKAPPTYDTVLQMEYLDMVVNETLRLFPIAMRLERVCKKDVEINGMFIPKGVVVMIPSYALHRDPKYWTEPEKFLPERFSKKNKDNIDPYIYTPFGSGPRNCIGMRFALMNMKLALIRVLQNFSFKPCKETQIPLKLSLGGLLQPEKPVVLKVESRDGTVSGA

As to `CC(C)C(O)(c1ccc2c3c(ccc2c1)C(=O)N(C)C3)c1c[nH]cn1` (single isomer, unassigned; (-)) [Example 16, (−)-7-[1-hydroxy-1-(1H-imidazol-4-yl)-2-methylpropyl]-2-methyl-1,2-dihydro-3H-benzo[e]isoindol-3-one], the “Testosterone synthesis inhibitory activity (T/C, %)” value in the experiment on testosterone synthesis turned out to be 4.3%. Turning to `CC(C)C(O)(c1ccc2c3c(ccc2c1)C(=O)NC3)c1c[nH]cn1` (stereo not shown) [Example 1, 7-[1-hydroxy-1-(1H-imidazol-4-yl)-2-methylpropyl]-1,2-dihydro-3H-benzo[e]isoindol-3-one], in the experiment on testosterone synthesis, the “Testosterone synthesis inhibitory activity (T/C, %)” value came out at 6.0%. Besides, at Rat Steroid C17,20-lyase, the pIC50 is more than 8.00. Regarding `CC(C)C(O)(c1ccc2c3c(ccc2c1)C(=O)N(C)C3)c1c[nH]cn1` (stereo not shown) [Example 2, 7-[1-hydroxy-1-(1H-imidazol-4-yl)-2-methylpropyl]-2-methyl-1,2-dihydro-3H-benzo[e]isoindol-3-one], the pIC50 against human CYP3A4 was less than 5.00; on Rat Steroid C17,20-lyase, 7.82. With `CCN1Cc2c(ccc3cc(C(O)(c4c[nH]cn4)C(C)C)ccc23)C1=O` (stereo not shown) [Example 3, 2-ethyl-7-[1-hydroxy-1-(1H-imidazol-4-yl)-2-methylpropyl]-1,2-dihydro-3-benzo[e]isoindol-3-one], the pIC50 against human CYP3A4 is less than 5.00; on Rat Steroid C17,20-lyase, 7.64. In the case of `CC(C)C(O)(c1ccc2cc3c(cc2c1)CNC3=O)c1c[nH]cn1` (stereo not shown) [Example 10, 6-[1-hydroxy-1-(1H-imidazol-4-yl)-2-methylpropyl]-2,3-dihydro-1H-benzo[f]isoindol-1-one], the results for the pIC50 against human CYP3A4 and on Rat Steroid C17,20-lyase were less than 5.00 and 7.38, respectively. In turn, `CC(C)CC(O)(c1ccc2c3c(ccc2c1)C(=O)N(C)C3)c1c[nH]cn1` (stereo not shown) [Example 14, 7-[1-hydroxy-1-(1H-imidazol-4-yl)-3-methylbutyl]-2-methyl-1,2-dihydro-3H-benzo[e]isoindol-3-one] gave a pIC50 on Rat Steroid C17,20-lyase of 7.66.

Source of the values: patent US6960586B2, “Imidazole derivatives, process for their preparation and their use” (Takeda Pharmaceutical Company Limited, priority 2000, dated 2005).
